Reference: patent US7056509B2 (Board of Regents The University of Texas System, priority 1999, dated 2006)

Legend:
[1] = tested on: VEGFR2 (KDR/Fc); test: Coprecipitation assay, VEGF with VEGFR2/Fc in solution; assay type: binding; details: 40 ng VEGF, 200 ng receptor/Fc, F(ab′)2 of antibody
Description: 200 ng of soluble forms of VEGFR1 (Flt-1/Fc) or VEGFR2 (KDR/Fc, R&D Systems, Minneapolis, Minn.) were added for a total volume of 50 μl and incubated for 2 hrs. The receptor/Fc constructs were precipitated using Protein A-sepharose beads and the resulting precipitate was washed 4 times with binding buffer.
Reducing sample buffer was added to the pellet and supernatant of each reaction and both were analyzed by 12% SDS-PAGE and transferred to PVDF membranes. […] The soluble receptor/Fc constructs were also detected by using peroxidase-conjugated goat anti-human Fc (Kirkegaard & Perry Laboratories, Inc.)
The receptor/Fc constructs were precipitated by incubation with Protein A sepharose beads. The precipitate was washed and resuspended in reducing sample buffer and separated by 12% SDS-PAGE and transferred to PVDF.

[2] = Blood clearance of radioiodinated 2C3-GUS in mice; assay type: in vivo, mouse; details: after intravenous injection into mice, 125I-labelled
From the text: 2C3-GUS was radioiodinated with ^125I to a specific activity of 5×10^6 cpm/μg.

[3] = tested on: human NCI-H358 NSCLC tumors; test: Localization of 2C3-GUS in SCID mice bearing NCI-H358 tumors; assay type: in vivo, mouse
[4] = tested on: LS174T colon adenocarcinoma; test: LS174T tumor model in mice; assay type: in vivo, mouse; details: mice with established tumors
[5] = tested on: NCI-H358 NSCLC; test: In vivo tumor growth inhibition, newly-implanted NCI-H358; set-up: species or system mouse
Description: (§1) Nu/nu mice were injected subcutaneously with either 1×10^7 NCI-H358 NSCLC cells or 5×10^6 A673 rhabdomyosarcoma cells on day 0. […] The tumors were then measured twice per wk for a period of approximately six wk for the NCI-H358 bearing mice and four wk for the A673 bearing mice. Tumor volume was calculated according to the formula: volume=L×W×H, where L=length, W=width, H=height.

[6] = tested on: NCI-H358 NSCLC and HT29 colon adenocarcinoma xenografts; test: In vivo localization to human tumor xenografts in tumor-bearing mice; set-up: species or system mouse; details: i.v. 24 hours prior to sacrifice; 3E7 and GV39M bound tumor vascular endothelium, 2C3 tumor stroma
Description: Tumors were grown subcutaneously in immunocompromised mice (NCI-H358 NSCLC in nu/nu mice and HT29 colon adenocarcinoma in SCID mice) until the tumor volume was approximately 1 cm^3. 100 μg of unlabeled antibody for studies using SCID mice, or 100 μg of biotinylated antibody for studies using nude mice, was injected intravenously via a tail vein. Twenty four hours later, the mice were anesthetized, perfused with PBS, and tumor and organs including heart, lungs, liver, kidneys, intestines and spleen were collected and snap frozen in liquid nitrogen.
The tumor and organs from each mouse were sectioned on a cryostat and stained for antibody immunohistochemically as above, with the exception that sections from the nude mice were developed using peroxidase labeled streptavidin-biotin complex (Dako, Carpinteria, Calif.) and the sections from the SCID mice were developed using two peroxidase-conjugated secondary antibodies, a goat anti-mouse IgG+IgM followed by a rabbit anti-goat IgG.
100 μg of GV39M and 3E7 or isotype-matched control IgG were injected into SCID mice bearing HT29 human colonic adenocarcinomas. Twenty-four hours later, the mice were sacrificed, exsanguinated and the tumors and tissues were removed.

[7] = tested on: A673 rhabdomyosarcoma; test: Treatment of mice with established A673 tumors; assay type: in vivo, mouse
[8] = biological target: T1, VEGF (Homo sapiens, UniProt P15692); test: Competition ELISA (epitope groups, cross-blocking); assay type: binding; details: ELISA cross-blocking studies of 2C3 with A4.6.1
T1 sequence (P15692 27-191 isoform P15692-4): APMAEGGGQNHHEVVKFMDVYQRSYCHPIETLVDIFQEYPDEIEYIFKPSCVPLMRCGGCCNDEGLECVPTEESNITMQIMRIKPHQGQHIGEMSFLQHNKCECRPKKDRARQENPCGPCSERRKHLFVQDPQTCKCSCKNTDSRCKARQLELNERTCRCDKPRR
Description: Competition ELISA studies were performed by first labeling the antibodies with peroxidase according to the manufacturer's instructions (EZ-Link Activated Peroxidase, Pierce). […] Approximately 0.5–2.0 μg/ml of peroxidase labeled test antibody was incubated on the plate in the presence of either buffer alone, an irrelevant IgG, or the other anti-VEGF competing antibodies in a 10–100 fold excess.
The assay was done in triplicate at least twice for each combination of labeled and competitor antibody. Two antibodies were considered to be in the same epitope group if they cross-blocked each other's binding by greater than 80%.

[9] = tested on: VEGFR2 in PAE/KDR cells; test: VEGF-induced phosphorylation of VEGFR2 (immunoprecipitation and western blot); assay type: cell-based, porcine; details: antibody at 100 nM, 15 min
Description: PAE/KDR, PAE/FLT, and bEND.3 cells were grown to 80–90% confluency in 100 mm tissue dishes in media containing 5% serum. The cells were then serum starved for 24 hours in media containing 0.1% serum. After pretreatment with […] in PBS for 30 min, the cells were incubated with 5 nM (200 ng/ml) VEGF165, 5 nM (100 ng/ml) bFGF (R&D Systems, Minneapolis, Minn.), or A673 tumor conditioned media in the presence or absence of control or test antibodies for additional 15 min.
The cells were then washed with ice-cold PBS containing 10 mM EDTA, 2 mM sodium fluoride, and 2 mM sodium orthovanadate and lysed in lysis buffer (50 mM Tris, 150 mM NaCl, 1% Nonidet P-40, 0.25% sodium deoxycholate, 0.1% CHAPS, 5 mM EDTA, 1.5 mM MgCl2, 2 mM sodium fluoride, 2 mM sodium orthovanadate, 10% glycerol and protease inhibitors (Complete Protease Inhibitor Cocktail tablets, Boehringer Mannheim)). The lysates were clarified by centrifugation and resulting supernatant used for immunoprecipitation.
The reactions using the chicken anti-FLT-1 antibody were subsequently incubated with a bridging goat anti-chicken antibody (Kirkegaard and Perry Laboratories, Inc.) for 1 h at 4° C. […]

[10] = biological target: T2, VEGF and VEGF:Flk-1 (Homo sapiens, UniProt P15692); test: Indirect and capture ELISA for reactivity with VEGF alone or VEGF associated with sFlk-1; assay type: binding; details: VEGF alone or VEGF associated with sFlk-1 (VEGF:Flk-1)
T2 sequence (P15692 27-191 isoform P15692-4): T1 sequence (P15692 27-191 isoform P15692-4)
Description: The Flk-1/SEAP protein was produced and purified as described by Tessler et al. (1994). Basically, the extracellular domain of Flk-1 (sFlk-1) was produced in Spodoptera frugiperda (Sf9) cells and purified by immunoaffinity techniques utilizing a monoclonal anti-Flk-1 antibody (1A8). sFlk-1 was then biotinylated and bound on avidin-coated plates.
The reactivity was determined as described above for the initial screening.
A capture ELISA was also developed. In the capture ELISA, microtiter plates were-coated overnight at 4° C. with 100 ng of the indicated antibody. […] Streptavidin conjugated to peroxidase (Kirkegaard & Perry Laboratories, Inc.), diluted 1:2000, was used as a second layer and developed.

[11] = tested on: ABAE cells; test: Endothelial cell growth assay (VEGF-mediated growth, MTS); assay type: cell-based, bovine
Description: Adult bovine aortic endothelial (ABAE) cells were plated into 96-well tissue culture plates at 1500 cells/well and grown in the presence of 0.5 nM human VEGF with the addition of the various sample and control antibodies. Control wells received media with or without VEGF.
After 4 days of incubation, the cells were quantified by an MTS (3-(4,5-dimethylthiazol-2-yl)-5-(3-carboxylmethoxyphenyl)-2-(4-sulfophenyl)-2H-tetrazolium, inner salt) conversion assay, where MTS conversion to a formazan is proportional to cell number and can be followed by absorbance at 490 nm (Cell Titer 96 AQueous One Solution Cell Proliferation Assay, Promega, Madison, Wis.). The assay was performed according to the manufacturer's instructions.
Cell growth was estimated by subtracting the MTS conversion in cultures to which VEGF was not added. Results were expressed as a percentage of the MTS conversion in control cultures to which only VEGF was added (Buttke et al., 1993).

[12] = tested on: NCI-H358 NSCLC tumors; test: In vivo tumor therapy, established NCI-H358 xenografts; set-up: species or system mouse
Description: (§2) Male nu/nu mice bearing subcutaneous NCI-H358 tumors or HT1080 fibrosarcoma 200–400 mm^3 in size were injected i.p. with test or control antibodies. The NCI-H358 bearing mice were treated with 100 μg of antibodies per injection three times a week during the first week and twice a week during the second and third week. The mice were then switched to 50 μg per injection every five days. The HT1080 bearing mice were treated with 100 μg of the indicated antibody or saline every other day throughout the duration of the study. In both studies, mice were sacrificed when their tumors reached 2500 mm^3 in size or earlier if tumors began to ulcerate.
Doses were 50–100 μg every 3–5 days. […] In addition to measuring mean tumor volume (FIG. 4), photographs of the mice from each treatment group were also taken to show the differences in tumor size and appearance at the end of the study.

[13] = tested on: VEGFR2 (KDR/Flk-1); test: ELISA of VEGF binding to VEGFR2-coated wells in presence of antibody; set-up: species or system mouse; details: 1000-fold molar excess of antibody over VEGF (1 nM)
[14] = tested on: HT1080 fibrosarcoma; test: In vivo tumor therapy, established HT1080 xenografts; set-up: species or system mouse; details: 100 μg i.p. every other day
Description: as §2

[15] = tested on: A673 rhabdomyosarcoma; test: In vivo tumor growth inhibition, newly-implanted A673; set-up: species or system mouse
Description: as §1

[16] = patients having progressive disease before treatment; cited from earlier work
[17] = 100 μg i.p. 2 times per wk from day 1, nu/nu mice

Molecule: 2C3 F(ab′)2: F(ab′)2 of 2C3
- Blocking of VEGF binding to VEGFR2/Fc in solution [1]: blocked the binding of VEGF to VEGFR2/Fc

Molecule: 2C3-GUS
- t½ α [2]: about 6 hours
- t½ β [2]: about 25 hours
- Localization after i.v. injection ([3]; immunohistochemistry on frozen sections of tumors): specifically localized to tumor vasculature and surrounding tumor stroma
- Time of maximal localization after injection ([3]; mouse, in vivo): 24 to 48 h
- Staining of normal tissues ([3]; mouse, in vivo, iv): unstained

Molecule: 2C3: monoclonal anti-VEGF antibody, IgG2a k, hybridoma ATCC PTA 1595; blocks VEGF binding to VEGFR2 but not VEGFR1
- Growth of established tumors [4]: significantly slowed the growth
- Tumor growth retardation ([5]; 10 μg dose twice per wk): less marked
- Final tumor volume [5, 17]: approximately 150 mm^3
- Immunohistochemical Reactivity Tumor [6]: 3+
- Growth of established tumors [7]: significantly slowed the growth
- Epitope on VEGF [8]: not cross-reactive
- Blocking of VEGF-induced phosphorylation of VEGFR2 [9]: block VEGF-induced phosphorylation of VEGFR2
- Predominant Reactivity [10]: VEGF
- Blocks VEGF-induced proliferation [11]: Yes
- Mean tumor volume after approximately 14 wk of treatment ([12]; 100 μg i.p., prolonged treatment (FIG. 5A)): 84 mm^3
- Mean tumor volume at the end of the study, % of initial mean tumor volume ([12]; 50–100 μg i.p. every 3–5 days, approximately 10 weeks of treatment): 30%
- Mean tumor weight ([12]; end of the study (day 116), FIG. 5A): 0.054 g
- Decrease in mean tumor volume ([12]; start to approximately 14 wk of treatment (FIG. 5A)): approximately 80%
- VEGF bound to VEGFR2-coated wells, % of amount bound in absence of antibody [13]: ~19%
- Tumor growth [14]: arrested the growth of the tumors
- Final tumor volume [15, 17]: approximately 150 mm^3
- Effect on growth of A673 tumors ([15]; 10 or 1 μg twice per wk, compared to untreated mice): did slow the growth of A673 tumors

Molecule: NC(=O)c1nnn(Cc2cc(Cl)c(C(=O)c3ccc(Cl)cc3)c(Cl)c2)c1N [CAI, carboxyamidotriazole]
- Cancer patients with disease stabilization [16]: 49%
